Reference: PMC9477735, “Phosphorylation of muramyl peptides by NAGK is required for NOD2 activation” (Nature, 2022)

Experiments:
[1] = target: T1, N-acetylglucosamine kinase (NAGK) (Homo sapiens, UniProt Q9UJ70); assay: in vitro kinase assay with [γ-32P]ATP and TLC; assay type: biochemical
T1 construct: full-length human NAGK, recombinant from E. coli, His-MBP tag removed

[2] = target: T1, N-acetylglucosamine kinase (NAGK); assay: in vitro kinase assay with [γ-32P]ATP and TLC; LC-MS/MS; NMR of product; assay type: biochemical

T1 sequence (Q9UJ70 2-344): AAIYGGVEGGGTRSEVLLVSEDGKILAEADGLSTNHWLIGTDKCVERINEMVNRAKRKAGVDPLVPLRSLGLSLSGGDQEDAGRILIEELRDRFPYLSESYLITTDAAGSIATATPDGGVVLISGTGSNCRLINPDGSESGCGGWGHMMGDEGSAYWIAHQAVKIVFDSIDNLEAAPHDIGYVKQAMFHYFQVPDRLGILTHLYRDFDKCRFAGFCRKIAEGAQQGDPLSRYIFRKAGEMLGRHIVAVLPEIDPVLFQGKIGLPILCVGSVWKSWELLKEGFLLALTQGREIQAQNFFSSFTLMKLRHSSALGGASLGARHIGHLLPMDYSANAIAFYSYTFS

## CC(=O)N[C@H]1C(O)O[C@H](CO)[C@@H](O)[C@@H]1O (some centres unmarked) [GlcNAc, N-acetylglucosamine]
[1]
  in vitro kinase assay with [γ-32P]ATP and TLC: to similar levels as its bona fide substrate GlcNAc (Fig. 3b)

## CC(=O)N[C@H]1C(O)O[C@H](CO)[C@@H](O)[C@@H]1O[C@H](C)C(=O)N[C@@H](C)C(=O)N[C@H](CCC(=O)O)C(N)=O (some centres unmarked) [MDP]
[2]
  in vitro kinase assay with [γ-32P]ATP and TLC; LC-MS/MS; NMR of product: These assays revealed that NAGK readily phosphorylated MDP and the related molecule N-acetylmuramic acid (MurNAc)
